Experimental findings from patent US12653190B2, “Heteroaryl-triazole compounds as pesticides” (Bayer Aktiengesellschaft, priority 2020, dated 2026) are described below.

SMILES strings stand for the structures.

Format in all cases: in vivo
Test [1] deals with brown planthopper (Nilaparvata lugens). The test is described as follows: Nilaparvata lugens spray test. Conditions: 96 h, after 4 days, rice plants. The method, then: Nilaparvata lugens—Spray Test • Solvent: 78.0 parts by weight of acetone • 1.5 parts by weight of dimethylformamide • Emulsifier: alkylarylpolyglycol ether
To produce a suitable preparation of active compound, 1 part by weight of active compound is mixed with the stated amount of solvents and is diluted with water, containing an emulsifier concentration of 1000 ppm, to the desired concentration. Further test concentrations are prepared by dilution with emulsifier containing water.
Rice plants (Oryza sativa) are sprayed with a preparation of the active ingredient of the desired concentration and the plants are infested with the brown planthopper (Nilaparvata lugens).
After 4 days mortality in % is determined. 100% means all planthoppers have been killed and 0% means none of the planthoppers have been killed.

For test [2], the system named is fall armyworm larvae (Spodoptera frugiperda). The test is described as follows: Spodoptera frugiperda spray test. Conditions: in Zea mays, 168 h. In outline:
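Maize leaf sections were sprayed with compound in acetone/dimethylformamide diluted in water with 1000 ppm emulsifier, dried, then infested with larvae. Mortality in % was scored after 7 days, 100% meaning all caterpillars killed.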

Test [3] has as its system larvae of the banded cucumber beetle (Diabrotica balteata). The test is described as follows: Diabrotica balteata spray test. Conditions: 168 h, after 7 days, wheat seeds, read-out: efficacy (seedling growth); for pest or weed control at 32 µg/disc, 100 g/ha: 100 g/ha (=32 μg/well); for pest or weed control at 160 µg/disc, 500 g/ha: 500 g/ha (=160 μg/well). In outline:
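Germinated wheat seeds on agar (5 per well) were sprayed with compound formulated in acetone/DMF and diluted in water with 1000 ppm emulsifier. Each unit was then infested with 10–20 larvae. Efficacy % was scored after 7 days as seedling growth relative to an untreated, uninfested control (100% = normal growth).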

For test [4], the system named is green peach aphid (Myzus persicae). The test is described as follows: Myzus persicae spray test. Particulars: foliar, 120 h, after 5 days, Chinese cabbage leaf disks. In outline:
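Chinese cabbage leaf disks infested with all aphid instars were sprayed with compound in acetone/DMF, diluted in water with 1000 ppm alkylarylpolyglycol ether emulsifier. Mortality (%) scored after 5 days, 100% meaning all aphids killed.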

Test [5] has as its system larvae of the southern green stink bug (Nezara viridula). The test is described as follows: Nezara viridula spray test. Particulars: 96 h, after 4 days, barley plants. In outline: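 Compound in acetone/DMF was diluted in water with 1000 ppm alkylarylpolyglycol ether emulsifier. Barley plants were sprayed with it, then infested with Nezara viridula larvae. Mortality % was scored after 4 days (100% = all killed).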

The subject of test [6] is adult engorged female ticks (Rhipicephalus microplus). The test can be described thus: Rhipicephalus (Boophilus) microplus injection test. Particulars: 168 h, egg deposition monitored after 7 days, read-out: efficacy (infertile eggs); for pest or weed control at 4 µg/tick: 4 μg/tick injected; for pest or weed control at 20 µg/tick: 20 μg/tick injected. In outline: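 Five adult engorged female ticks each injected with 1 μL of DMSO compound solution into the abdomen, then kept in a climate chamber. Fertile egg deposition assessed after 7 days, with hatching followed to about 42 days; efficacy 100% means all eggs infertile, 0% all fertile.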

In test [7] the test system is adult unfed cat fleas (Ctenocephalides felis). The test is described as follows: Ctenocephalides felis oral test. Particulars: 48 h, 100 ppm in cattle blood, after 2 days. How it is done: Ctenocephalides felis—Oral Test
• Solvent: dimethyl sulfoxide
To produce a suitable preparation of active compound, 10 mg of active compound are dissolved in 0.5 mL solvent, and the concentrate is diluted with cattle blood to the desired concentration.
Approximately 20 adult unfed cat fleas (Ctenocephalides felts) are placed in flea chambers. The blood chamber, sealed with parafilm on the bottom, are filled with cattle blood supplied with compound solution and placed on the gauze covered top of the flea chamber, so that the fleas are able to suck the blood. The blood chamber is heated to 37° C. whereas the flea chamber is kept at room temperature.
After 2 days mortality in % is determined. 100% means all the fleas have been killed; 0% means none of the fleas have been killed.

Test [8] has as its system Rhipicephalus (Boophilus) microplus larvae (strain Parkhurst, resistant against synthetic pyrethroids). The test is described as follows: Rhipicephalus (Boophilus) microplus in-vitro contact test, larval cattle tick. Particulars: 5 μg/cm^2 (=500 g/ha), after 48 hours, read-out: efficacy (larvae dead or moribund). In outline:
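Acetone solutions coated onto glass tube walls, 900 ppm giving 5 μg/cm^2; 20–50 larvae per tube after solvent evaporation. Incubated 48 h at 27 °C, 85% relative humidity; efficacy from negative geotaxis, 100% meaning all larvae dead or moribund.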

Test [9] deals with southern root-knot nematode (Meloidogyne incognita). The test is described as follows: Meloidogyne incognita test. Conditions: 20 ppm, after 14 days. The method, then: Meloidogyne incognita—Test
• Solvent: 125.0 parts by weight of acetone
To produce a suitable preparation of active compound, 1 part by weight of active compound is mixed with the stated amount of solvent, and the concentrate is diluted with water to the desired concentration. Vessels are filled with sand, a solution of the active ingredient, a suspension containing eggs and larvae of the southern root-knot nematode (Meloidogyne incognita) and salad seeds. The salad seeds germinate and the seedlings grow. Galls develop in the roots.
After 14 days the nematicidal activity is determined on the basis of the percentage of gall formation. 100% means no galls were found and 0% means the number of galls found on the roots of the treated plants was equal to that in untreated control plants.

Test [10] has as its system adult cat fleas (Ctenocephalides felis). The test is described as follows: Ctenocephalides felis in-vitro contact test, adult cat flea. Particulars: 5 μg/cm^2 (=500 g/ha), after 48 hours, read-out: efficacy (fleas dead or moribund). The method, then: Ctenocephalides felis—In-Vitro Contact Tests Adult Cat Flea
9 mg compound is solved in 1 mL acetone and diluted with acetone to the desired concentration. 250 μL of the test solution is filled in 25 mL glass test tubes and homogeneously distributed on the inner walls by rotation and tilting on a shaking device (2 h at 30 rpm). With a compound concentration of 900 ppm, an inner surface of 44.7 cm^2 and a homogeneous distribution, a dose of 5 μg/cm^2 is achieved.
After the solvent has evaporated, each test tube is filled with 5-10 adult cat fleas (Ctenocephalides felis), closed with a perforated lid and incubated in a lying position at room temperature and relative humidity. After 48 hours efficacy is determined. The fleas are patted on the ground of the tubes and are incubated on a heating plate at 45-50° C. for at most 5 minutes Immotile or uncoordinated moving fleas, which are not able to escape the heat by climbing upwards, are marked as dead or moribund.
An efficacy of 100% means all fleas are dead or moribund; 0% means no fleas are dead or moribund.

Test [11] has as its system adult flies Musca domestica strain WHO-N. The test is described as follows: Musca domestica test (MUSCDO surface treatment & contact assay). Conditions: surface concentration 20 mg/m^2, 30 minutes exposure, 24 hours after contact, read-out: efficacy (mortality). In outline: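 Compound dissolved in acetone (2 mg/ml) with 2000 ppm rapeseed oil methyl ester and dried onto glazed tiles. Adult WHO-N strain flies were held on the treated surface for 30 minutes, with % mortality scored 24 hours after contact.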

In general, mortality refers to the share of the test organisms that died. As for `C[C@H](NC(=O)c1cc(OC(F)(F)F)cc(C(C)(C)C#N)c1)c1ncnn1-c1cc(C#N)ncn1` [Example I-66], the mortality at 500 g/ha in test [1] and in [5] was 100% in each case. In addition, the mortality at 100 g/ha in test [2] and in [4] was 100% each time. The pest or weed control at 32 µg/disc, 100 g/ha in test [3] was 100%.

As for `C[C@H](NC(=O)c1cc(Br)cc(C(F)(F)c2ccc(F)cc2)c1)c1ncnn1-c1ccc(C#N)cn1` [Example I-25], the pest or weed control at 4 µg/tick in [6] was 100%. In addition, the mortality at 100 ppm in [7] stood at 90%. In test [2], this compound gave a mortality at 100 g/ha of 100%. In addition, in test [8], the pest or weed control at 5 µg/cm2, 5 µg/cm2 turned out to be 100%. Also, in test [9], the “nematicidal activity (gall formation)” value amounted to 90%.

In test [1], `Cc1cc(OC2CCCC2)cc(C(=O)N[C@@H](C)c2ncnn2-c2ccc(C#N)cn2)c1` [Example I-4, N-{(1S)-1-[1-(5-Cyanopyridin-2-yl)-1H-1,2,4-triazol-5-yl]ethyl}-3-(cyclopentyloxy)-5-methylbenzamide] came in with a mortality at 100 g/ha of 100%. Also, in test [6], the pest or weed control at 4 µg/tick turned out to be 100% and the pest or weed control at 20 µg/tick stood at 100%. Besides, the pest or weed control at 160 µg/disc, 500 g/ha in [3] was determined as 100%. In test [5], the mortality at 100 g/ha was found to be 100%.

On to `Cc1nc([C@H](C)NC(=O)c2cc(OC(F)(F)F)cc(C(C)(C)C#N)c2)n(-c2ncc(C#N)s2)n1` [Example I-51], for which the mortality at 500 g/ha in [1] and in test [5] was 100% each time. In test [2], the mortality at 100 g/ha came out at 100%. Also, the pest or weed control at 32 µg/disc, 100 g/ha in test [3] amounted to 100%.

For `Cc1cc(OC2COC2)cc(C(=O)N[C@@H](C)c2ncnn2-c2ccc(C#N)cn2)c1` [Example I-6, N-{(1S)-1-[1-(5-Cyanopyridin-2-yl)-1H-1,2,4-triazol-5-yl]ethyl}-3-methyl-5-(oxetan-3-yloxy)benzamide], the mortality at 100 g/ha in [1] and in [5] was 100% in each case. Moreover, the pest or weed control at 4 µg/tick in [6] came out at 100%. Further, the pest or weed control at 20 µg/tick in [6] amounted to 100%. This compound showed a mortality at 100 ppm in test [7] of 100%. This compound gave a mortality at 500 g/ha in test [2] of 100%. Besides, the pest or weed control at 160 µg/disc, 500 g/ha in [3] came out at 100%. Moreover, the results for the pest or weed control at 5 µg/cm2, 5 µg/cm2 in test [8] and in [10] were 90% and 100%, respectively.

For the compound `C[C@H](NC(=O)c1cc(Cl)cc(C(C)(C)C#N)c1)c1nc(C2CC2)nn1-c1ccc(C#N)cn1` [Example I-38], the mortality at 500 g/ha in test [1] and in test [5] was 100% throughout. Besides, the mortality at 100 g/ha in [2] worked out at 100%; in test [5] it was 90%. In addition, the pest or weed control at 32 µg/disc, 100 g/ha in test [3] was found to be 100%. The mortality at 20 mg/m2 in test [11] was 80 to 100%.
